Measured values from PubChem BioAssay (NCI).
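Briefly, cells in 96-well plates were exposed to five compound concentrations for 48 h, and endpoints were estimated by linear interpolation. The concentration for 50% growth inhibition is given as GI50. TGI denotes the concentration required for complete inhibition of growth.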

Columns and labels:
Test in all cases: NCI anticancer screen, dose series, 48 h
[1] = system: MCF7 breast
[2] = system: A498 renal
[3] = system: RXF 393 renal
[4] = system: TK-10 renal
[5] = system: SNB-75 CNS
[6] = system: K-562 leukemia
[7] = system: T-47D breast
[8] = system: NCI-H226 lung
[9] = system: SW-620 colon
[10] = system: OVCAR-5 ovarian
[11] = system: SF-268 CNS
[12] = system: IGROV1 ovarian
[13] = system: 786-0 renal
[14] = system: SF-295 CNS
[15] = system: M14 melanoma
[16] = system: OVCAR-8 ovarian
[17] = system: NCI/ADR-RES ovarian
[18] = system: SN12C renal
[19] = system: SR leukemia
[20] = system: HOP-62 NSCLC
[21] = system: U251 CNS
[22] = system: EKVX NSCLC
[23] = system: NCI-H23 lung
[24] = system: CCRF-CEM leukemia
[25] = system: MALME-3M melanoma
[26] = system: SNB-19 CNS
[27] = system: CAKI-1 renal
[28] = system: UACC-257 melanoma
[29] = system: HS 578T breast
[30] = system: HOP-92 NSCLC
[31] = system: MDA-MB-435
[32] = system: SK-MEL-28 melanoma
[33] = system: NCI-H522 lung
[34] = system: MDA-MB-231 breast
[35] = system: SK-OV-3 ovarian
[36] = system: OVCAR-4 ovarian
[37] = system: UO-31 renal
[38] = system: HCT-15 colon
[39] = system: SK-MEL-5 melanoma
[40] = system: LOX IMVI melanoma
[41] = system: BT-549 breast
[42] = system: ACHN renal
[43] = system: RPMI-8226 leukemia
[44] = system: A549 NSCLC
[45] = system: PC-3 prostate
[46] = system: COLO 205 colon
[47] = system: DU-145 prostate
[48] = system: NCI-H460 lung
[49] = system: MOLT-4 leukemia
[50] = system: HCC-2998 colon
[51] = system: HCT-116 colon
[52] = system: SF-539 CNS
[53] = system: HT29 colon
[54] = system: KM12 colon
[55] = system: UACC-62 melanoma
[56] = system: HL-60(TB) leukemia
[57] = system: OVCAR-3 ovarian
[58] = system: SK-MEL-2 melanoma

Which results are given for `C=CCn1c(-c2ccc(N=NNc3ccc(-c4n[nH]c(=S)n4CC=C)cc3)cc2)n[nH]c1=S`?
TGI [1]: > 100 µM; TGI [2]: > 100 µM; TGI [3]: 37.8 µM; TGI [4]: > 100 µM; TGI [5]: 10.8 µM; TGI [6]: 7.71 µM; TGI [7]: 4.76 µM; TGI [8]: 6.13 µM; TGI [9]: > 100 µM; TGI [10]: > 100 µM; TGI [11]: 21.5 µM; TGI [12]: 15.1 µM; TGI [13]: 25.4 µM; TGI [14]: 15.7 µM; TGI [15]: > 100 µM; TGI [16]: 8.84 µM; TGI [17]: 61.4 µM; TGI [18]: > 100 µM; TGI [19]: > 100 µM; TGI [20]: 14.8 µM; TGI [21]: 17.5 µM; TGI [22]: > 100 µM; TGI [23]: > 100 µM; TGI [24]: > 100 µM; TGI [25]: > 100 µM; TGI [26]: > 100 µM; TGI [27]: 19.1 µM; TGI [28]: > 100 µM; TGI [29]: > 100 µM; TGI [30]: 39.1 µM; TGI [31]: > 100 µM; TGI [32]: > 100 µM; TGI [33]: > 100 µM; TGI [34]: > 100 µM; TGI [35]: 25.3 µM; TGI [36]: 6.35 µM; TGI [37]: 3.97 µM; TGI [38]: > 100 µM; TGI [39]: 3.79 µM; TGI [40]: > 100 µM; TGI [41]: 6.68 µM; TGI [42]: 5.09 µM; TGI [43]: 4.63 µM; TGI [44]: > 100 µM; TGI [45]: > 100 µM; TGI [46]: > 100 µM; TGI [47]: 16 µM

For `O=C1/C(=C/c2ccc(F)cc2)CN(Cc2cn(CCNc3ccnc4cc(Cl)ccc34)nn2)C/C1=C\c1ccc(F)cc1`, which GI50 [1] is on record?
Its GI50 is 0.4 µM.

And the TGI [1]?
Its TGI is 1.75 µM.

What about the GI50 [2] of the same compound?
Its GI50 is 1.11 µM.

And the TGI [2]?
The TGI was 2.35 µM.

What about the GI50 [3] of the same compound?
The GI50 was 1.66 µM.

What about the TGI [3] of the same compound?
The TGI was 3.11 µM.

And the GI50 [4]?
Its GI50 is 1.85 µM.

And the TGI [4]?
The TGI was 3.45 µM.

What about the GI50 [5] of the same compound?
Its GI50 is 1.6 µM.

And the TGI [5]?
Its TGI is 3.62 µM.

What about the GI50 [6] of the same compound?
Its GI50 is 0.301 µM.

And the TGI [6]?
The TGI was 1.58 µM.

And the GI50 [48]?
Its GI50 is 1.18 µM.

And the TGI [48]?
The TGI was 2.57 µM.

What about the GI50 [7] of the same compound?
Its GI50 is 1.89 µM.

And the TGI [7]?
Its TGI is 4.33 µM.

What about the GI50 [8] of the same compound?
Its GI50 is 1.91 µM.

And the TGI [8]?
Its TGI is 4.24 µM.

What about the GI50 [49] of the same compound?
Its GI50 is 2.38 µM.

What about the TGI [49] of the same compound?
The TGI was 7.08 µM.

And the GI50 [9]?
Its GI50 is 0.366 µM.

What about the TGI [9] of the same compound?
Its TGI is 1.39 µM.

What about the GI50 [10] of the same compound?
The GI50 was 1.92 µM.

And the TGI [10]?
The TGI was 3.71 µM.

And the GI50 [11]?
The GI50 was 1.52 µM.

What about the TGI [11] of the same compound?
Its TGI is 2.91 µM.

What about the GI50 [12] of the same compound?
Its GI50 is 1.5 µM.

What about the TGI [12] of the same compound?
Its TGI is 2.93 µM.

And the GI50 [13]?
The GI50 was 1.66 µM.

And the TGI [13]?
The TGI was 3.04 µM.

And the GI50 [50]?
The GI50 was 1.19 µM.

What about the TGI [50] of the same compound?
Its TGI is 2.55 µM.

And the GI50 [14]?
Its GI50 is 1.94 µM.

What about the TGI [14] of the same compound?
Its TGI is 3.65 µM.

What about the GI50 [15] of the same compound?
The GI50 was 1.92 µM.

What about the TGI [15] of the same compound?
The TGI was 3.74 µM.

And the GI50 [16]?
Its GI50 is 1.78 µM.

What about the TGI [16] of the same compound?
The TGI was 5.24 µM.

And the GI50 [17]?
The GI50 was 2.76 µM.

And the TGI [17]?
The TGI was 11.3 µM.

And the GI50 [18]?
The GI50 was 1.58 µM.

And the TGI [18]?
The TGI was 3.09 µM.

What about the GI50 [19] of the same compound?
Its GI50 is 0.333 µM.

What about the TGI [19] of the same compound?
The TGI was 1.66 µM.

And the GI50 [20]?
The GI50 was 2.07 µM.

And the TGI [20]?
Its TGI is 3.76 µM.

What about the GI50 [21] of the same compound?
Its GI50 is 1.33 µM.

And the TGI [21]?
The TGI was 2.68 µM.

And the GI50 [23]?
Its GI50 is 1.84 µM.

And the TGI [23]?
The TGI was 4.01 µM.

And the GI50 [24]?
The GI50 was 1.05 µM.

What about the TGI [24] of the same compound?
Its TGI is 4.65 µM.

And the GI50 [25]?
The GI50 was 1.98 µM.

What about the TGI [25] of the same compound?
Its TGI is 3.76 µM.

What about the GI50 [26] of the same compound?
Its GI50 is 1.57 µM.

And the TGI [26]?
The TGI was 2.92 µM.

And the GI50 [28]?
The GI50 was 1.78 µM.

What about the TGI [28] of the same compound?
The TGI was 3.35 µM.

And the GI50 [29]?
The GI50 was 2.33 µM.

And the TGI [29]?
The TGI was 7.56 µM.

What about the GI50 [30] of the same compound?
The GI50 was 1.34 µM.

What about the TGI [30] of the same compound?
Its TGI is 3.05 µM.

What about the GI50 [51] of the same compound?
Its GI50 is 0.258 µM.

And the TGI [51]?
The TGI was 0.721 µM.

What about the GI50 [52] of the same compound?
The GI50 was 1.83 µM.

And the TGI [52]?
The TGI was 3.27 µM.

What about the GI50 [53] of the same compound?
Its GI50 is 0.68 µM.

And the TGI [53]?
Its TGI is 2.09 µM.

And the GI50 [31]?
Its GI50 is 1.41 µM.

What about the TGI [31] of the same compound?
The TGI was 2.73 µM.

What about the GI50 [54] of the same compound?
The GI50 was 0.328 µM.

And the TGI [54]?
Its TGI is 1.19 µM.

What about the GI50 [55] of the same compound?
Its GI50 is 1.56 µM.

What about the TGI [55] of the same compound?
The TGI was 2.95 µM.

What about the GI50 [32] of the same compound?
The GI50 was 1.74 µM.

What about the TGI [32] of the same compound?
The TGI was 3.13 µM.

What about the GI50 [33] of the same compound?
The GI50 was 1.67 µM.

And the TGI [33]?
The TGI was 3.16 µM.

And the GI50 [34]?
Its GI50 is 1.76 µM.

What about the TGI [34] of the same compound?
Its TGI is 3.41 µM.

What about the GI50 [35] of the same compound?
The GI50 was 1.6 µM.

And the TGI [35]?
The TGI was 3.02 µM.

What about the GI50 [36] of the same compound?
Its GI50 is 1.81 µM.

What about the TGI [36] of the same compound?
Its TGI is 8.75 µM.

What about the GI50 [37] of the same compound?
The GI50 was 1.37 µM.

What about the TGI [37] of the same compound?
Its TGI is 2.7 µM.

And the GI50 [38]?
Its GI50 is 1.4 µM.

What about the TGI [38] of the same compound?
Its TGI is 3.21 µM.

And the GI50 [56]?
Its GI50 is 1.41 µM.

And the TGI [56]?
Its TGI is 4.97 µM.

And the GI50 [39]?
Its GI50 is 1.7 µM.

And the TGI [39]?
Its TGI is 3.06 µM.

And the GI50 [40]?
Its GI50 is 0.474 µM.

And the TGI [40]?
Its TGI is 1.72 µM.

And the GI50 [57]?
The GI50 was 1.24 µM.

What about the TGI [57] of the same compound?
Its TGI is 2.5 µM.

And the GI50 [41]?
Its GI50 is 1.85 µM.

And the TGI [41]?
Its TGI is 3.26 µM.

What about the GI50 [58] of the same compound?
Its GI50 is 1.94 µM.

What about the TGI [58] of the same compound?
Its TGI is 3.73 µM.

What about the GI50 [42] of the same compound?
The GI50 was 1.68 µM.

And the TGI [42]?
The TGI was 3.04 µM.

And the GI50 [43]?
Its GI50 is 0.299 µM.

And the TGI [43]?
Its TGI is 0.896 µM.

What about the GI50 [44] of the same compound?
The GI50 was 1.88 µM.

And the TGI [44]?
The TGI was 4.23 µM.

And the GI50 [45]?
The GI50 was 1.16 µM.

And the TGI [45]?
The TGI was 2.6 µM.

And the GI50 [46]?
The GI50 was 1.5 µM.

And the TGI [46]?
Its TGI is 2.88 µM.

What about the GI50 [47] of the same compound?
Its GI50 is 1.32 µM.

What about the TGI [47] of the same compound?
The TGI was 2.63 µM.
